These results are taken from ChEMBL document CHEMBL1201862, “PubChem BioAssay data set” (2004).

One may read the AC50 as the concentration at which the activity in the assay is half-maximal. As a reminder, the IC50 is the point on the concentration scale where inhibition reaches its midpoint. Usually Ki stands for the equilibrium dissociation constant of an inhibitor or competing ligand from its target. What is called CC50 is the concentration at which the toxic effect on the cells reaches its halfway point.

Each structure is given as a SMILES string. Active and inactive are the calls of the source.

The target in assay [1] is Cyclin-dependent kinase 5/CDK5 activator 1 (Homo sapiens, UniProt Q00535). As to the kind of experiment: CDK5/p35 kinase inhibitors, dose response, biochemical, cherry-picked samples, set 2 (AID 504545).
Assay [2] concerns the target T1, Neuropeptides B/W receptor type 1 (Homo sapiens, UniProt P48145).
T1 sequence (P48145 whole entry): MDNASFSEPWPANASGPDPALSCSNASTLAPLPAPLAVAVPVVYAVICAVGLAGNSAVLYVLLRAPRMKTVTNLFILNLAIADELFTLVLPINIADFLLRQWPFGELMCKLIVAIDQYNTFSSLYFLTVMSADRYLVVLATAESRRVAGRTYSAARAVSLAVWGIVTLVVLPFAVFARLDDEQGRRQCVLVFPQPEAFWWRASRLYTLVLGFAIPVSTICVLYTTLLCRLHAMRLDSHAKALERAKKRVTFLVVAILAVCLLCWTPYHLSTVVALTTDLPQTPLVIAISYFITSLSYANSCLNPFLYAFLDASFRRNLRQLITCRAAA
As to the kind of experiment: Fluorescence-based dose response cell-based high throughput screening assay to identify antagonists of the G-protein coupled receptor 7 (GPR7). [Related pubchem assays: 1952 (Screening assay (GPR7 antagonists).), 1880 (Summary AID.)]. The format is functional.

Assay [3] deals with Melanin-concentrating hormone receptor 1 (Homo sapiens, UniProt Q99705). As to the kind of experiment: Fluorescence-based counterscreen for antagonists of the G-protein coupled receptor 7 (GPR7): cell-based high throughput dose response assay to identify antagonists of the melanin-concentrating hormone receptor 1 (MCHR1). Format: functional. For orientation: A counterscreen serves to expose hits that act by an unwanted route or on another target.

Assay [4] concerns the target T2, Corticotropin-releasing factor receptor 2/Corticotropin-releasing factor-binding protein (Homo sapiens, UniProt P24387+Q13324).
T2 sequence (Q13324 whole entry): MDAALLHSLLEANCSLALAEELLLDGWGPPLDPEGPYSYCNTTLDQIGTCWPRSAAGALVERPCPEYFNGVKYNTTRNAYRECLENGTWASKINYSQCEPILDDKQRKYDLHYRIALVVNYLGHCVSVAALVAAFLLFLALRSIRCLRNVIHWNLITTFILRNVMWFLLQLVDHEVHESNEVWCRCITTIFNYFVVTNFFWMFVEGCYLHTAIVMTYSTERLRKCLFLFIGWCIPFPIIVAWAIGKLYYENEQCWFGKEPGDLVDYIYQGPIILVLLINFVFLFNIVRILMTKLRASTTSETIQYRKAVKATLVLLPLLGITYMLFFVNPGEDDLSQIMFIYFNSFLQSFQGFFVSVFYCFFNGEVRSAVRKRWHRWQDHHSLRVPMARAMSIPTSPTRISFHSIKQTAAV
T2 sequence (P24387 whole entry): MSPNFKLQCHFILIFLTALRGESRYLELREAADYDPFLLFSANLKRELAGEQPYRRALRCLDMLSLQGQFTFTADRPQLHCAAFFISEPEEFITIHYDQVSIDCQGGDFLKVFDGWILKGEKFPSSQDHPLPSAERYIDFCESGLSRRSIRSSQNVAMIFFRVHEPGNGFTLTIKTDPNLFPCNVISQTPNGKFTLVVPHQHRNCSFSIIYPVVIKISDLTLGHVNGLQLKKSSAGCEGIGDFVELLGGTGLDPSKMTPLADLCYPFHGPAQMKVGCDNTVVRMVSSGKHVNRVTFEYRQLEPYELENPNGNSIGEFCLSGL
As to the kind of experiment: activators of CRF receptor 2 with binding protein – uHTS hits, confirmation (AID 602473). The format is functional. Particulars: read-out: EC50_Mean.

Assay [5] concerns the target Dual specificity protein phosphatase 3 (Homo sapiens, UniProt P51452). Put plainly: VHR1 inhibitor Ki determination, SAR follow-up, biochemical, colorimetric (AID 2004).
Assay [6] can be described thus: Luminescent dose response cell-based high throughput screening assay for inhibitors of the Janus kinase 2 mutant JAK2V617F. [Related pubchem assays: 1446 (Primary screen.), 1521 (Confirmation assay.), 1486 (Counter screen.)]. The format is functional.
Assay [7] deals with HEK293. Put plainly: NOD1 signaling inhibitors, primary screen, cell-based, luminescence, uHTS (AID 1578). The format is functional. Particulars: Homo sapiens.
For assay [8], the system named is BJ. As to the kind of experiment: cytotoxicity toward BJ-TERT fibroblasts, dose response, cell-based, RAS-independent, luminescence (AID 1933). Format: functional. Particulars: Homo sapiens.
Assay [9] relates to HEK293. Put plainly: cells. To be noted: Homo sapiens. Format: functional, cell-based.
Assay [10] deals with Transitional endoplasmic reticulum ATPase (Homo sapiens, UniProt P55072, C522A). As to the kind of experiment: C522A mutant p97 ATPase inhibitors, dose response, counter-screen for p97 inhibitor project, biochemical, luminescence (AID 1544).
Assay [11] has as its system BJ. Put plainly: cells. Particulars: Homo sapiens. The format is functional, cell-based.
Assay [12] deals with HEK293. Put plainly: cells. The format is functional, cell-based. To be noted: Homo sapiens. The source holds these as a separate data set.
The subject of assay [13] is HEK293. Put plainly: NOD2 signaling inhibitors in MDP-stimulated cells, cell-based, uHTS, luminescence (AID 2001). Format: functional. Particulars: Homo sapiens.
For assay [14], the system named is BJ. Put plainly: cytotoxicity toward BJ-TERT-LT-ST fibroblasts, dose response, cell-based, RAS-independent, luminescence (AID 1935).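 Also: BJ fibroblasts immortalized with TERT plus LT and ST oncogenes.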 The format is functional. To be noted: Homo sapiens.
Assay [15] deals with Transitional endoplasmic reticulum ATPase (Homo sapiens, UniProt P55072). As to the kind of experiment: p97 ATPase inhibitors, dose response, biochemical (AID 1534).
Assay [16] can be described thus: cytotoxicity toward DRD oncogenic fibroblasts, dose response, cell-based, non-viral oncogenic, luminescence (AID 1934). The format is functional. Particulars: Homo sapiens.
The next assay deals with Tumor necrosis factor (Homo sapiens, UniProt P01375). Put plainly: TNFa-triggered NF-kB activation inhibitors, SAR follow-up, cell-based, revised (AID 2337). Format: functional.
The target in assay [17] is Nucleotide-binding oligomerization domain-containing protein 1 (Homo sapiens, UniProt Q9Y239). As to the kind of experiment: NOD1 signaling inhibitors, SAR follow-up, revised (AID 2333). Format: functional.
The target in assay [18] is T3, Heat shock factor protein 1 (Mus musculus, UniProt P38532).
T3 sequence (P38532 whole entry): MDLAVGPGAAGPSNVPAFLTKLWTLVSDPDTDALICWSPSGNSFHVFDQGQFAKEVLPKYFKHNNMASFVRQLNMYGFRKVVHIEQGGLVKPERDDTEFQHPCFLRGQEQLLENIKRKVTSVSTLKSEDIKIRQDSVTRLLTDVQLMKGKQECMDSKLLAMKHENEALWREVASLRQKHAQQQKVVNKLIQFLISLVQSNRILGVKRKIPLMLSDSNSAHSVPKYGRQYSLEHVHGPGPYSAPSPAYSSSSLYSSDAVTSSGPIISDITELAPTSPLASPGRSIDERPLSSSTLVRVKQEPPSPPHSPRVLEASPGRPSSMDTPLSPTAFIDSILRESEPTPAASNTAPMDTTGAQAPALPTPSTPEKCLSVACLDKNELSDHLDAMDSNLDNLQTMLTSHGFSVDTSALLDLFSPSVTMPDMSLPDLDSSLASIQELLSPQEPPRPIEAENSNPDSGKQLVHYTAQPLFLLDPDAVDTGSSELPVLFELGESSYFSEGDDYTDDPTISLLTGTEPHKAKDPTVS
As to the kind of experiment: HSF1 potentiators in luciferase reporter cells, confirmation, cell-based, NIH3T3, luminescence, dose retest (AID 435004).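 Also: stress induced by proteasome inhibitor MG132 added 30 min after compound; luciferase reporter driven by HSF1 response element in NIH3T3 cells; actives raise luminescence as potentiators of the MG132 stress response.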 Format: functional.

The target of assay [19] is T4, Replicative DNA helicase DnaB (Mycobacterium tuberculosis, UniProt P9WMR3).
T4 sequence (P9WMR3 whole entry): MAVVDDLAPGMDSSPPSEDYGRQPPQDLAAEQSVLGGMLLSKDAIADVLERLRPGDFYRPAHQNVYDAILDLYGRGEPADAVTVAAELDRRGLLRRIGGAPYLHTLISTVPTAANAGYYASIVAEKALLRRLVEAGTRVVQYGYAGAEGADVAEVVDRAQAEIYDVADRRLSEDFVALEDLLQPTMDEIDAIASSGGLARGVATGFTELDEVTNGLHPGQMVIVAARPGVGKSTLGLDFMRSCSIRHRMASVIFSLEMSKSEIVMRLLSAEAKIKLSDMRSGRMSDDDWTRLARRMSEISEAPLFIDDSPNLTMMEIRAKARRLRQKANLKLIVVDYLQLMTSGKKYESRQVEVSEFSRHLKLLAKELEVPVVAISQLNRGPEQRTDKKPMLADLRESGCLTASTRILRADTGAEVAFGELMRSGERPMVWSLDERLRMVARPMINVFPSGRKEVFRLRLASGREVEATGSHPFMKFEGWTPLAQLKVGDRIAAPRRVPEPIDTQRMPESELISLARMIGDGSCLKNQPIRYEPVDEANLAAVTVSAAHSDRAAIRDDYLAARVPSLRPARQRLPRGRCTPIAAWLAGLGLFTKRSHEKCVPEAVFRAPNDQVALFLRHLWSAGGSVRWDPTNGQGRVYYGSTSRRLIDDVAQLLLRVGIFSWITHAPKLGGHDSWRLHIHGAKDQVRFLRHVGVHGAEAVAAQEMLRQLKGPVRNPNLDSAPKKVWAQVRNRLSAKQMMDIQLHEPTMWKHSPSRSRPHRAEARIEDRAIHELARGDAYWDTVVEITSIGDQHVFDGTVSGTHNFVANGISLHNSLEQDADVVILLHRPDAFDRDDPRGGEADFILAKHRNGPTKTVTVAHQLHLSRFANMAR
Put plainly: DnaB intein splicing inhibitors, dose response, biochemical, cell-free fluorescence (AID 449749). Format: functional.

For assay [20], the system named is BJ. As to the kind of experiment: cytotoxicity toward Ras-transformed BJeLR fibroblasts, dose response, cell-based, alamar blue fluorescence, cherrypicked samples (AID 2631).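 Also: confirmatory dose-response assay in RAS-dependent BJ fibroblasts engineered with TERT, LT and ST, with cytotoxicity read by fluorescence.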 The format is functional. To be noted: Homo sapiens.
Another assay deals with T5, Protein RecA (Mycobacterium tuberculosis, UniProt P9WHJ3).
T5 sequence (P9WHJ3 whole entry): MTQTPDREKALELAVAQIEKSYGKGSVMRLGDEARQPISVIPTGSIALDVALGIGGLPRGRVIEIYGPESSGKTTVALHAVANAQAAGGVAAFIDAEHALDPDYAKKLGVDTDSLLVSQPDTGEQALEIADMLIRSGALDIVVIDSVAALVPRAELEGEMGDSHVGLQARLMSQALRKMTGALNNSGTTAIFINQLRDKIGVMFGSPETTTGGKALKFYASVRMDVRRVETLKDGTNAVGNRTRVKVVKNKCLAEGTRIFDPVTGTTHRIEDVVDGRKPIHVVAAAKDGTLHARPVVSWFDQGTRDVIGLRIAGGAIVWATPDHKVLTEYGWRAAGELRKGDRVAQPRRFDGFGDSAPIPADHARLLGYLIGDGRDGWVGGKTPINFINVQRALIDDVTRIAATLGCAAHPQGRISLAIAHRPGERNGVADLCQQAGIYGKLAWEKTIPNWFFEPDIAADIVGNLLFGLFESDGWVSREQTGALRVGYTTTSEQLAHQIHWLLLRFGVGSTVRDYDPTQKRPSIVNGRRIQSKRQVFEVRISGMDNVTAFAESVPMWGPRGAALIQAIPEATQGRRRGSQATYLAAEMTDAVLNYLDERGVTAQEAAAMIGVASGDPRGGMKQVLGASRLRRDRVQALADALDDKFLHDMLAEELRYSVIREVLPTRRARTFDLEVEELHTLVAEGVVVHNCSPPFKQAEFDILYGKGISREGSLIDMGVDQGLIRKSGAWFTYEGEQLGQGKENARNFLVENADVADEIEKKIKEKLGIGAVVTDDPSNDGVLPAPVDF
As to the kind of experiment: Fluorescence Cell-Free Homogeneous Dose Retest to Identify Inhibitors of RecA-Intein Splicing Activity. [Related pubchem assays (depositor defined):AID2097, AID2223, AID489010, AID492950]. The format is functional.

Another assay relates to Vero. Put plainly: cells. Format: functional. To be noted: Chlorocebus sabaeus.
The subject of assay [21] is HEK293. As to the kind of experiment: cells. To be noted: Homo sapiens.
Assay [22] addresses Photoreceptor-specific nuclear receptor (Homo sapiens, UniProt Q9Y5X4). The format is functional.
Assay [23] has as its target Peroxisome proliferator-activated receptor gamma/Nuclear receptor corepressor 2 (Homo sapiens, UniProt P37231+Q9Y618). The format is functional.

Chain of Dual specificity protein phosphatase 3 (P51452 whole entry): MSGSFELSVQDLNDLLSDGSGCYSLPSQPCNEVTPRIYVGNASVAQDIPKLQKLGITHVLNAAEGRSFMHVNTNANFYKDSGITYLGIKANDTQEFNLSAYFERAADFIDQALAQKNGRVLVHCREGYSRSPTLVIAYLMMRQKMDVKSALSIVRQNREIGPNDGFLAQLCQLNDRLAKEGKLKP
Chain of Nucleotide-binding oligomerization domain-containing protein 1 (Q9Y239 whole entry, the tested form may be a part): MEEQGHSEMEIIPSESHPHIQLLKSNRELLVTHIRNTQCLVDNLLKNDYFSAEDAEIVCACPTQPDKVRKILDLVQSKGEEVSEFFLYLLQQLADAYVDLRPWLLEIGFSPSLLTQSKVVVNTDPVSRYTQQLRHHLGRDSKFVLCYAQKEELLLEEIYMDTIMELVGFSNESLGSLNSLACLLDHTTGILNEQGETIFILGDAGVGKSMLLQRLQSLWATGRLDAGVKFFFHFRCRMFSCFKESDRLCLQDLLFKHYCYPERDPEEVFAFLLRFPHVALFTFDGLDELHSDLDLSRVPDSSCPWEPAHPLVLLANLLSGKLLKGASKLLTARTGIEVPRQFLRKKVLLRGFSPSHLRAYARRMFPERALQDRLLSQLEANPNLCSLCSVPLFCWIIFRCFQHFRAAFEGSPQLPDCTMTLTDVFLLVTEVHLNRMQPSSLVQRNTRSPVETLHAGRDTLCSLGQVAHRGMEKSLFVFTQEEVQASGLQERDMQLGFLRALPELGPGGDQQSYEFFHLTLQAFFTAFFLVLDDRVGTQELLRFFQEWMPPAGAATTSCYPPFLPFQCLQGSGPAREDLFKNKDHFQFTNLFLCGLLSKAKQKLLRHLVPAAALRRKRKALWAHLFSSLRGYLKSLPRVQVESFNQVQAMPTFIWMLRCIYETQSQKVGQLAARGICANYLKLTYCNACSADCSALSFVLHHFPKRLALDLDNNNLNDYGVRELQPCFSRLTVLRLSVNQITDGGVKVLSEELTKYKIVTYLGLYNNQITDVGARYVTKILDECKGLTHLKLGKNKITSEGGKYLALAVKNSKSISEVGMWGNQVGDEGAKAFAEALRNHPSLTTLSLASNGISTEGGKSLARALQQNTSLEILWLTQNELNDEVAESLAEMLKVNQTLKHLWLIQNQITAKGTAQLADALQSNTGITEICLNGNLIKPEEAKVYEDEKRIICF
Chain of Transitional endoplasmic reticulum ATPase (Homo sapiens, UniProt P55072, C522A) (P55072 2-806 C522A limits assumed): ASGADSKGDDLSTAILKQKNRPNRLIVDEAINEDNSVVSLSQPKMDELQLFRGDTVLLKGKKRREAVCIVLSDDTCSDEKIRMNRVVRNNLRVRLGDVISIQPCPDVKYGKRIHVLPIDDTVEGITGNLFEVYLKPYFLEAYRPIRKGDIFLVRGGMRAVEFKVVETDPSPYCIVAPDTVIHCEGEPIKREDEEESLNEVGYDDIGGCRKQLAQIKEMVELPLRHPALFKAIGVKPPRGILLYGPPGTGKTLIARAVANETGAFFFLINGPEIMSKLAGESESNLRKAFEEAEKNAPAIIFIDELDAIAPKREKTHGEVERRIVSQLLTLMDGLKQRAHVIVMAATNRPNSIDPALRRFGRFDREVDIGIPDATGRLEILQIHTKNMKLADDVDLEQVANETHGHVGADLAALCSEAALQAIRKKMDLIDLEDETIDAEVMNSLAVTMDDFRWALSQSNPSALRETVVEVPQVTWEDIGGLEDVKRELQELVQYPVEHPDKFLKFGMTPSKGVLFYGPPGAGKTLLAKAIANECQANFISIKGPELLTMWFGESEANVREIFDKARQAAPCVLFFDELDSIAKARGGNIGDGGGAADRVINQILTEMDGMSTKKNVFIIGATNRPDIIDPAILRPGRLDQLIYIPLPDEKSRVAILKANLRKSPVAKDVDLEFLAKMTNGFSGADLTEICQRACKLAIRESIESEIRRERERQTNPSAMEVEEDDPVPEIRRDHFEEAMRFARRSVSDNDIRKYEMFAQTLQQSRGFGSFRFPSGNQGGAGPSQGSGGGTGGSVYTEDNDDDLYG
Chain of Cyclin-dependent kinase 5/CDK5 activator 1 (Q00535 whole entry): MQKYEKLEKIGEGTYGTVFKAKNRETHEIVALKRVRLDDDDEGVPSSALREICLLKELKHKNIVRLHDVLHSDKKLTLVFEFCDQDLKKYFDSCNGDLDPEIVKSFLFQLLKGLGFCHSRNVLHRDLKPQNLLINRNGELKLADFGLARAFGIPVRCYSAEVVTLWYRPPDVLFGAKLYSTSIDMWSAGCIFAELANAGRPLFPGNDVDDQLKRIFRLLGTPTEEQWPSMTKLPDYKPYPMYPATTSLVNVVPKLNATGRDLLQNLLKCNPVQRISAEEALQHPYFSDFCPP
Chain of Cyclin-dependent kinase 5/CDK5 activator 1 (Q15078 whole entry, further chain): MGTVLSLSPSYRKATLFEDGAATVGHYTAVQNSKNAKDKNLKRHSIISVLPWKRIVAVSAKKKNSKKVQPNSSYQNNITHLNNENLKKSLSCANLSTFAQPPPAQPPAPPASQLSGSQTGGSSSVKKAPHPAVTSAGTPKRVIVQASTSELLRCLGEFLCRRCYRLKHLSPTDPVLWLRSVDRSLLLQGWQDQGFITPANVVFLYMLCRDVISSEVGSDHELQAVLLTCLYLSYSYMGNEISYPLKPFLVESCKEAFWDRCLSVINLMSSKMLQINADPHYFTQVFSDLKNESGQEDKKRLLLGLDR
Chain of Transitional endoplasmic reticulum ATPase (Homo sapiens, UniProt P55072) (P55072 whole entry): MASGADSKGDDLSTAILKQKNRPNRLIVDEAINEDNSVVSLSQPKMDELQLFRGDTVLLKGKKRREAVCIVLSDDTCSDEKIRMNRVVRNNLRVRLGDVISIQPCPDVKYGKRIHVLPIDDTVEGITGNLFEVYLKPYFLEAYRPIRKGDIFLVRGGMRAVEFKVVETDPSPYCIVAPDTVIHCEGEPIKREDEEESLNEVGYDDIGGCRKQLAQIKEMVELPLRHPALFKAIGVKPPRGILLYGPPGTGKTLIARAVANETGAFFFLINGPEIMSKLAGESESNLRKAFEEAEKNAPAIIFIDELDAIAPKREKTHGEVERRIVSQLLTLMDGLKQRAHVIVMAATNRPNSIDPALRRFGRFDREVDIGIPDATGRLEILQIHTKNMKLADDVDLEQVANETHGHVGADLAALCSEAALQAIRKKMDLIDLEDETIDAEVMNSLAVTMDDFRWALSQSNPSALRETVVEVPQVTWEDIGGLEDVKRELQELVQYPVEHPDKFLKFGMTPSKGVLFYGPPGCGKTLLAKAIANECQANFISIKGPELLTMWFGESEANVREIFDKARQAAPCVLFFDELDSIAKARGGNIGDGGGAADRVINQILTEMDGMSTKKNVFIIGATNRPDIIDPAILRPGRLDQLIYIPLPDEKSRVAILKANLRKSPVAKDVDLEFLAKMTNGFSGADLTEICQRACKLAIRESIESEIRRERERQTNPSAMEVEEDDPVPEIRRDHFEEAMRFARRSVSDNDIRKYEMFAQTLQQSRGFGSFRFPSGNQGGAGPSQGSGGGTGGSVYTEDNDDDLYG
Chain of Photoreceptor-specific nuclear receptor (Q9Y5X4 whole entry): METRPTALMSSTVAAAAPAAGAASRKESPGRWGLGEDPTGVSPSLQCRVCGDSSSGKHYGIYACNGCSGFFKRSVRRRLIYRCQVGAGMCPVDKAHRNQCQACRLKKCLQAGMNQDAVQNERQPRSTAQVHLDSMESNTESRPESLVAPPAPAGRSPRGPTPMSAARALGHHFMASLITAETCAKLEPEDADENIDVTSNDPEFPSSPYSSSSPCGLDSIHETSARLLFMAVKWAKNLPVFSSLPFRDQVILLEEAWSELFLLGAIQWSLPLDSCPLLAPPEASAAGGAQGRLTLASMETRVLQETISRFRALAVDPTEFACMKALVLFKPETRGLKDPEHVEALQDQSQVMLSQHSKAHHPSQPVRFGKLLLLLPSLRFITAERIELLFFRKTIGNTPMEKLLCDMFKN
Chain of Tumor necrosis factor (P01375 whole entry, the tested form may be a part): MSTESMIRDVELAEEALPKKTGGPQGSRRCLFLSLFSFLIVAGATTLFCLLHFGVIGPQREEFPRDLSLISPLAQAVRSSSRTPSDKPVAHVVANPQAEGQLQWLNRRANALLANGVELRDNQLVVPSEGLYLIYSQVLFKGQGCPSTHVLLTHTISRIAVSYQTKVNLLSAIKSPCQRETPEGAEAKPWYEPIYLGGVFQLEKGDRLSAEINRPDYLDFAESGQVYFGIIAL
Chain of Melanin-concentrating hormone receptor 1 (Q99705 whole entry): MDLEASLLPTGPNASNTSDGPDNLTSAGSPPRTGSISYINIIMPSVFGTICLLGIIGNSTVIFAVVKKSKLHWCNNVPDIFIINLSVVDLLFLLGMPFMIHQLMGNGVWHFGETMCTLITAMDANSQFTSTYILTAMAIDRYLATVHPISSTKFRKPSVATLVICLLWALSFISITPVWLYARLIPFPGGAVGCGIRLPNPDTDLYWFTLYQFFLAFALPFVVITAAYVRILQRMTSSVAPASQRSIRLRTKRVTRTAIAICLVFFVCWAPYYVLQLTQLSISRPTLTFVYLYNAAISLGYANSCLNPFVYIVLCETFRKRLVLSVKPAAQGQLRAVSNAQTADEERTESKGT

As to `CC(C)(C)C(=O)c1sc(Nc2ccccc2)nc1N`, in [1], the AC50 was 23.4 µM (active).

Turning to `Cc1cccc(NC(=S)NC(=O)Cc2ccccc2)c1C`, the IC50 in assay [2] is 6.65 µM (active); in assay [3], 13.3 µM (not active). The EC50 in assay [4] is 9.75 µM (active).

As for `CCC(CO)N/C=C1\C(=O)N(c2c(Cl)cccc2Cl)c2ccccc21` (stereo unspecified), in [5], the Ki is 24.2 µM (inactive).

Consider `Nc1nc(CCl)nc(Nc2ccc3ccccc3c2)n1`, for which the IC50 in assay [6] is 0.476 µM (active); with HEK293 [9] it was 5.4 µM (active); in assay [10], > 50 µM (not active); in the assay on HEK293 [12], > 20 µM (inactive); with HEK293 [13], 7.7 µM (active); in assay [15], > 50 µM (not active). In addition, the IC50 at Tumor necrosis factor was 11.1 µM (active); in [17] it was 3.43 µM (active); with HEK293 [21], > 20 µM (inactive). Besides, the EC50 is 11.1 µM (active) in the assay with HEK293 [7]; < 0.12 µM (active) in the assay with BJ [8]; 0.717 µM (inconclusive) with BJ [11]; 8.32 µM (inconclusive) with BJ [14]; 0.289 µM (active) in assay [16]; > 260 µM (inactive) in assay [18]. Further, the EC50 with BJ [20] is 4.62 µM (active); on Protein RecA it was 19.4 µM (active). In [19], the AC50 was 15.4 µM (active). Moreover, the half-maximal cytotoxic concentration (CC50) in the assay on Vero is 1.24 µM (active).

In the case of `Cc1cc(-c2ccc(Cl)cc2)c(C#N)c(N)n1`, the IC50 in [22] is 33 µM (not active); in [23] it was 3.26 µM (active).
